pEC50: −log10 of the molar value.
Molecular target: human PDE1b enzyme (Homo sapiens (Human), UniProt Q01064)
Test: PDE1b inhibitory assay (IMAP TR-FRET)
Details: not given

SMILES	pEC50
O=c1n(Cc2ccc(F)cc2)c2sc3c(c2c2ncnn12)CCOC3 [Example 92, 6-(4-Fluorobenzyl)-6,8,10,11-tetrahydro-5H-pyrano[4′,3′:4,5]thieno[3,2-e][1,2,4]triazolo[1,5-c]pyrimidin-5-one]	5.00 to 6.00
COc1ccc(Cn2c(=O)n3ncnc3c3cc(CN4CC(O)C4)sc32)c(F)c1 [Example 213, 6-(2-Fluoro-4-methoxybenzyl)-8-((3-hydroxyazetidin-1-yl)methyl)thieno[3,2-e][1,2,4]triazolo[1,5-c]pyrimidin-5(6H)-one]	6.00 to 7.00
COc1ccc(Cn2c(=O)n3ncnc3c3cc(CN4CCN(c5ccc(F)cc5)CC4)sc32)cc1 [Example 188, 8-((4-(4-Fluorophenyl)piperazin-1-yl)methyl)-6-(4-methoxybenzyl)thieno[3,2-e][1,2,4]triazolo[1,5-c]pyrimidin-5(6H)-one]	6.00 to 7.00
COc1ccc(Cn2c(=O)n3ncnc3c3c4c(sc32)CN(CC2CCNCC2)CC4)cc1 [Example 182, 6-(4-Methoxybenzyl)-9-(piperidin-4-ylmethyl)-8,9,10,11-tetrahydropyrido[4′,3′:4,5]thieno[3,2-e][1,2,4]triazolo[1,5-c]pyrimidin-5(6H)-one]	6.00 to 7.00

Same assay, conditions: negative log of half-maximal molar inhibitory concentration; 200 nM FAM-cAMP; reported as ranges

SMILES	PDE1b (pEC50)
COc1ccc(Cn2c(=O)n3ncnc3c3c(CN(C)CC4CCOCC4)csc32)cc1 [Example 199, 6-(4-Methoxybenzyl)-9-((methyl((tetrahydro-2H-pyran-4-yl)methyl)amino)methyl)thieno[3,2-e][1,2,4]triazolo[1,5-c]pyrimidin-5(6H)-one]	>7
COc1ccc(Cn2c(=O)n3ncnc3c3c4c(sc32)CN(Cc2ccccn2)CCC4)cc1 [Example 146, 6-(4-Methoxybenzyl)-9-(pyridin-2-ylmethyl)-6,8,9,10,11,12-hexahydro-5H-[1,2,4]triazolo[1″,5″:1′,6′]pyrimido[5′,4′:4,5]thieno[2,3-c]azepin-5-one]	>7
COc1ccc(Cn2c(=O)n3ncnc3c3c4c(sc32)CN(CC2(C)COC2)CC4)cc1 [Example 111, 6-(4-Methoxybenzyl)-9-((3-methyloxetan-3-yl)methyl)-8,9,10,11-tetrahydropyrido[4′,3′:4,5]thieno[3,2-e][1,2,4]triazolo[1,5-c]pyrimidin-5 (6H)-one]	>7
COc1ccc(Cn2c(=O)n3ncnc3c3c(C)c(CN4CC5CCC(C4)O5)sc32)cc1 [Example 67, 8-(8-Oxa-3-azabicyclo[3.2.1]octan-3-ylmethyl)-6-(4-methoxybenzyl)-9-methylthieno[3,2-e][1,2,4]triazolo[1,5-c]pyrimidin-5(6H)-one]	>7
COc1ccc(Cn2c(=O)n3ncnc3c3c4c(sc32)CN(c2ccccn2)CC4)cc1 [Example 179, 6-(4-Methoxybenzyl)-9-(pyridin-2-yl)-8,9,10,11-tetrahydropyrido[4′,3′:4,5]thieno[3,2-e][1,2,4]triazolo[1,5-c]pyrimidin-5(6H)-one]	>7
COc1ccc(Cn2c(=O)n3ncnc3c3c4c(sc32)CN(CC2CCOC2)CCC4)cc1 (stereo not drawn) [Example 143, 6-(4-Methoxybenzyl)-9-((tetrahydrofuran-3-yl)methyl)-6,8,9,10,11,12-hexahydro-5H-[1,2,4]triazolo[1″,5″:1%6′]pyrimido[5′,4′:4,5]thieno[2,3-c]azepin-5-one]	>7
COc1ccc(Cn2c(=O)n3ncnc3c3c4c(sc32)CN(CC2CCCOC2)CC4)cc1 (stereo not drawn) [Example 134, 6-(4-Methoxybenzyl)-9-((tetrahydro-2H-pyran-3-yl)methyl)-8,9,10,11-tetrahydropyrido[4′,3′:4,5]thieno[3,2-e][1,2,4]triazolo[1,5-c]pyrimidin-5(6H)-one]	>7
COc1ccc(Cn2c(=O)n3ncnc3c3c4c(sc32)CN(CC2CCCCO2)CC4)cc1 (stereo not drawn) [Example 117, 6-(4-Methoxybenzyl)-9-((tetrahydro-2H-pyran-2-yl)methyl)-8,9,10,11-tetrahydropyrido[4′,3′:4,5]thieno[3,2-e][1,2,4]triazolo[1,5-c]pyrimidin-5(6H)-one]	>7

Source: US10092575B2, “Substituted thiophene- and furan-fused azolopyrimidine-5-(6H)-one compounds” (DART NEUROSCIENCE (CAYMAN) LTD., priority 2012, dated 2018)
